Biological target: LRRK2 (Homo sapiens, UniProt Q5S007)
Assay: LRRK2 protein kinase assay ([γ-33P] ATP, peptide substrate), KI values of Table 1
Format: biochemical
Conditions: LRRK2 affinity values
Text: All LRRK2 protein kinases were of human origin and were sourced from Invitrogen Corporation (Carlsbad, Calif. 92008 USA) unless otherwise indicated. The active mutant used was recombinant human, catalytic domain (amino acids 970-2527) containing a G2019S mutation, GST-tagged, expressed in insect cells (Invitrogen Cat#PV4881). The wild type used was recombinant human, catalytic domain (amino acids 970-2527) GST-tagged, expressed in insect cells (Invitrogen Cat#PV4873). The kinase dead mutant used was recombinant human, catalytic domain (amino acids 970-2527) containing a D1994A mutation, GST-tagged, expressed in insect cells (Invitrogen Cat#PM4041AE). No special measures were taken to activate any of the kinases.
All assays were carried out at room temperature (˜21° C.) and were linear with respect to time and enzyme concentration under the conditions used. Assays were performed for 180 min in a 96 well format. LRRK2 was present at a concentration of approximately 5 nM. The enzyme was diluted and assayed in 50 mM Tris-HCl pH7.5, 0.1 mM EGTA, 1 mM DTT and 10 mM MgCl2. The concentration of magnesium chloride in the assay was 10 mM. The [γ-33P] ATP (0.4 μCi/well) was used at 134 uM for G2019S mutant and at 57 μM for the wild type kinase in order to be at Km. The peptide substrate in the assay was […] at 100 μM.
The assays were initiated with Mg/ATP and stopped by the addition of 25 μl/well 50% orthophosphoric acid. Reactions were harvested onto Whatman P81 Unifilter Plates (Fisher Scientific. Loughborough, LE115RG, UK. Cat# FDU-105-020U) using a Tomtec harvester. (Tomtec Hamden, Conn. 06514. USA) Plates were counted using a Perkin Elmer Top Count NX7. (Perkin Elmer, Shelton Conn. 06484-4794 USA)
IC50 values of inhibitors were determined after carrying out assays at 10 different concentrations of each compound in duplicate.

LRRK2, sequence (Q5S007 whole entry G2019S, form open): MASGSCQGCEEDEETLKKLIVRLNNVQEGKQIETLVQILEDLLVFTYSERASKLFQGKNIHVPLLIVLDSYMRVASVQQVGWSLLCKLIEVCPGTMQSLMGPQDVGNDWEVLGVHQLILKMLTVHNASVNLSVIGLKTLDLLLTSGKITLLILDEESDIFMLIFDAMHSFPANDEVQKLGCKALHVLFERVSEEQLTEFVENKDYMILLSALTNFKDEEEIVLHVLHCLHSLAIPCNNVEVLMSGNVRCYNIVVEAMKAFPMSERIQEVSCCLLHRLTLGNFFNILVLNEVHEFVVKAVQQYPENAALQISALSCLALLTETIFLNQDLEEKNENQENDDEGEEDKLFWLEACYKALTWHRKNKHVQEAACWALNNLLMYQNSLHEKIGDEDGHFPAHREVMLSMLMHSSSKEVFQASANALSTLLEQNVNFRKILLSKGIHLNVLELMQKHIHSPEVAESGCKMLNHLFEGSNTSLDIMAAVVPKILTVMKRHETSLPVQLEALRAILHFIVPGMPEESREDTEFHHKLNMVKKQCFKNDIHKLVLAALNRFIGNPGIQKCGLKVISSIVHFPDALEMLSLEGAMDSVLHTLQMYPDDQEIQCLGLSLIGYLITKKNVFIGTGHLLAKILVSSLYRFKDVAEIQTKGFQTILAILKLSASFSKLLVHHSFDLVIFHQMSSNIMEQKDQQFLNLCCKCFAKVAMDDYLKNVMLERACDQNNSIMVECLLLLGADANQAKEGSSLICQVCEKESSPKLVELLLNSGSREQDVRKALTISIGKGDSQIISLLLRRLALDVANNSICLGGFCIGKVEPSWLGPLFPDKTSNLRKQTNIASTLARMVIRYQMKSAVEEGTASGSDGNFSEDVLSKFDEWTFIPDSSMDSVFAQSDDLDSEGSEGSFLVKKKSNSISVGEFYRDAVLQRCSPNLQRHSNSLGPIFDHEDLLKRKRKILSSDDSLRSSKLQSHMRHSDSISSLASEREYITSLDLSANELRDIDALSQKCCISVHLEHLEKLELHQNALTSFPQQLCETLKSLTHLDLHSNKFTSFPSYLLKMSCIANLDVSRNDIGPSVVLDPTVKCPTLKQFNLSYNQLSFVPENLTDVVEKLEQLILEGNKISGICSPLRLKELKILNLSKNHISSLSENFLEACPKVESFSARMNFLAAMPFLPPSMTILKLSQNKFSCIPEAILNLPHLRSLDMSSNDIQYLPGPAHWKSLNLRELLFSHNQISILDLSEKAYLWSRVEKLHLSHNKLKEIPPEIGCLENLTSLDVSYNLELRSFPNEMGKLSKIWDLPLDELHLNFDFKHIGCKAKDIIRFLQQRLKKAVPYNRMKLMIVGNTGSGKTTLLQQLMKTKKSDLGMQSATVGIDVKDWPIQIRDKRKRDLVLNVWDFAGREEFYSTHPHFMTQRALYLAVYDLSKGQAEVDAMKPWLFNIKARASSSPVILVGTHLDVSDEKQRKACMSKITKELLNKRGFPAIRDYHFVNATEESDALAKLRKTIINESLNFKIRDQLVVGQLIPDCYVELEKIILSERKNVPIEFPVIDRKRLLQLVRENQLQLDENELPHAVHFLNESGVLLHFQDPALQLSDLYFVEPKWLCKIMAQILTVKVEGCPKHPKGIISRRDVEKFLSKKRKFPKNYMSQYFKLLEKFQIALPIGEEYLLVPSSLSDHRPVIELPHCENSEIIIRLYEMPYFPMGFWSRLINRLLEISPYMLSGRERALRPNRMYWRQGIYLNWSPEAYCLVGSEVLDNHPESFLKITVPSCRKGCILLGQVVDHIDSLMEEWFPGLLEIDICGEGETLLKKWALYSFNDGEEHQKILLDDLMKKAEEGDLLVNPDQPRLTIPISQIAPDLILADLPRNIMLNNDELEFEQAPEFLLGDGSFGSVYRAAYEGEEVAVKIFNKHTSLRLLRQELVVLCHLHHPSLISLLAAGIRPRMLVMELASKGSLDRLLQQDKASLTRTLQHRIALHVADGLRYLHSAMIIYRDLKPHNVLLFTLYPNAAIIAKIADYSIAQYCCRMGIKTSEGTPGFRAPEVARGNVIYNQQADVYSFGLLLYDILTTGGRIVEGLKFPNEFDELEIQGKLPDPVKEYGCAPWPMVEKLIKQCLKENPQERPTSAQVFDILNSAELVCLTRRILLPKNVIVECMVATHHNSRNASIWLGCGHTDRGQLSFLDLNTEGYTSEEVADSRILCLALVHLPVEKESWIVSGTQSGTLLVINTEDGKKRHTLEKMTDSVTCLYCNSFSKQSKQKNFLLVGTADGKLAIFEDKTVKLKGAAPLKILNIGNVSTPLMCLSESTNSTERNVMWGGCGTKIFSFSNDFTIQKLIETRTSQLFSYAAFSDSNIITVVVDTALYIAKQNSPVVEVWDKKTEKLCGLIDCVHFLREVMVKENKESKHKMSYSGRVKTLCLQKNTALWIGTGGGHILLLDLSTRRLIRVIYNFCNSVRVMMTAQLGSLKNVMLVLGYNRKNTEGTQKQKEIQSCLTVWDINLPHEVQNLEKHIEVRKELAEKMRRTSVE

| SMILES | Ki [nM] |
| --- | --- |
| CC(C)Nc1nccc2[nH]nc(-c3cc(C4CCN(C)CC4)ccn3)c12 [Compound 40, N-isopropyl-3-(4-(1-methylpiperidin-4-yl)pyridin-2-yl)-1H-pyrazolo[4,3-c]pyridin-4-amine] | 8.4 |
| CC(C)Nc1nccc2[nH]nc(-c3nnc(C4CC4)n3C)c12 [Compound 41, 3-(5-cyclopropyl-4-methyl-4H-1,2,4-triazol-3-yl)-N-isopropyl-1H-pyrazolo[4,3-c]pyridin-4-amine] | 151 |
| CC(C)Nc1nccc2[nH]nc(-c3nc(C4CC4)n(C)n3)c12 [Compound 42, 3-(5-cyclopropyl-1-methyl-1H-1,2,4-triazol-3-yl)-N-isopropyl-1H-pyrazolo[4,3-c]pyridin-4-amine] | 213 |
| FC(F)(F)CNc1nccc2[nH]nc(-c3ccccn3)c12 [Compound 43, 3-(pyridin-2-yl)-N-(2,2,2-trifluoroethyl)-1H-pyrazolo[4,3-c]pyridin-4-amine] | 8.8 |
| Cc1c(-c2ccnc(-c3n[nH]c4ccnc(NC(C)C)c34)c2)cnn1C [Compound 44, 3-(4-(1,5-dimethyl-1H-pyrazol-4-yl)pyridin-2-yl)-N-isopropyl-1H-pyrazolo[4,3-c]pyridin-4-amine] | 1.1 |
| Cc1nn(C)cc1-c1ccnc(-c2n[nH]c3ccnc(NC(C)C)c23)c1 [Compound 45, 3-(4-(1,3-dimethyl-1H-pyrazol-4-yl)pyridin-2-yl)-N-isopropyl-1H-pyrazolo[4,3-c]pyridin-4-amine] | 1.3 |
| CC(C)Nc1nccc2[nH]nc(-c3cc(-c4ccn(C)n4)ccn3)c12 [Compound 46, N-isopropyl-3-(4-(1-methyl-1H-pyrazol-3-yl)pyridin-2-yl)-1H-pyrazolo[4,3-c]pyridin-4-amine] | 1 |
| CC(C)Nc1nccc2[nH]nc(-c3cc(C4CCOCC4)ncn3)c12 [Compound 47, N-isopropyl-3-(6-(tetrahydro-2H-pyran-4-yl)pyrimidin-4-yl)-1H-pyrazolo[4,3-c]pyridin-4-amine] | 3.8 |
| CC(C)Nc1nccc2[nH]nc(-c3cc(C4CCOC4)ncn3)c12 (stereo not shown) [Compound 48, N-isopropyl-3-(6-(tetrahydrofuran-3-yl)pyrimidin-4-yl)-1H-pyrazolo[4,3-c]pyridin-4-amine] | 12 |
| CC(C)Nc1nccc2[nH]nc(-c3cc(C4CCOC4)ccn3)c12 (stereo not shown) [Compound 49, N-isopropyl-3-(4-(tetrahydrofuran-3-yl)pyridin-2-yl)-1H-pyrazolo[4,3-c]pyridin-4-amine] | 4.6 |
| CCOc1ccnc(-c2n[nH]c3ccnc(NC4CCOCC4)c23)c1 [Compound 50, 3-(4-ethoxypyridin-2-yl)-N-(tetrahydro-2H-pyran-4-yl)-1H-pyrazolo[4,3-c]pyridin-4-amine] | 2.2 |
| Cc1cc2[nH]nc(-c3cc(C(F)(F)F)ccn3)c2c(NC2CCOCC2)n1 [Compound 51, 6-methyl-N-(tetrahydro-2H-pyran-4-yl)-3-(4-(trifluoromethyl)pyridin-2-yl)-1H-pyrazolo[4,3-c]pyridin-4-amine] | 39.9 |
| CN(C)C(=O)c1ccnc(-c2n[nH]c3ccnc(NC4CCOCC4)c23)c1 [Compound 52, N,N-dimethyl-2-(4-((tetrahydro-2H-pyran-4-yl)amino)-1H-pyrazolo[4,3-c]pyridin-3-yl)isonicotinamide] | 37.2 |
| CC(C)Nc1nccc2[nH]nc(-c3cc(C4CCCO4)ccn3)c12 (stereo not shown) [Compound 53, N-isopropyl-3-(4-(tetrahydrofuran-2-yl)pyridin-2-yl)-1H-pyrazolo[4,3-c]pyridin-4-amine] | 4.4 |
| CC(C)Nc1nccc2[nH]nc(-c3cc(C4CCCO4)ncn3)c12 (stereo not shown) [Compound 54, N-isopropyl-3-(6-(tetrahydrofuran-2-yl)pyrimidin-4-yl)-1H-pyrazolo[4,3-c]pyridin-4-amine] | 28.7 |
| CC(C)Nc1nccc2[nH]nc(-c3cc(C(=O)N(C)C)ccn3)c12 [Compound 55, 2-(4-(isopropylamino)-1H-pyrazolo[4,3-c]pyridin-3-yl)-N,N-dimethylisonicotinamide] | 46.9 |

— patent US20140288043A1, “PYRAZOLOPYRIDINE COMPOUNDS” (Genentech, Inc., priority 2013, published 2014)
